Where two headings read alike, the source gives them in different places.
Experiments:
[1] = tested on: K-562; assay: SRB colorimetric cell growth inhibition assay, K-562; assay type: cell-based; settings: Homo sapiens, K562, K-562; for GI50: GI=growth inhibition, read-out: GI50 K-562; for CC50: read-out: LC50 K-562; for IC (TGI): read-out: TGI K-562
Procedure, shortened: (§1)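 Tested samples remained on human cancer cell cultures throughout the incubation; viable biomass was then stained with SRB and read colorimetrically.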

[2] = tested on: IGROV-ET; assay: SRB colorimetric cell growth inhibition assay, IGROV-ET (ET-743 resistant); assay type: cell-based; settings: Homo sapiens, IGROV-ET; for GI50: GI=growth inhibition, read-out: GI50 IGROV-ET; for CC50: cell killing (cytotoxic effect), read-out: LC50 IGROV-ET; for IC (TGI): total growth inhibition (cytostatic effect), read-out: TGI IGROV-ET
Procedure, shortened: as §1

[3] = tested on: PANC-1; assay: SRB colorimetric cell growth inhibition assay, PANC-1; assay type: cell-based; settings: Homo sapiens; for GI50: GI=growth inhibition, read-out: GI50 PANC-1; for CC50: read-out: LC50 PANC-1; for IC (TGI): read-out: TGI PANC-1
Procedure, shortened: as §1

[4] = tested on: DU-145; assay: SRB colorimetric cell growth inhibition assay, DU-145; assay type: cell-based; settings: Homo sapiens; for GI50: GI=growth inhibition, read-out: GI50 DU-145; for CC50: cell killing (cytotoxic effect), read-out: LC50 DU-145; for IC (TGI): total growth inhibition (cytostatic effect), read-out: TGI DU-145
Procedure, shortened: as §1

[5] = tested on: SK-BR-3; assay: SRB colorimetric cell growth inhibition assay, SK-BR-3; assay type: cell-based; settings: Homo sapiens; for GI50: GI=growth inhibition, read-out: GI50 SK-BR-3; for CC50: cell killing (cytotoxic effect), read-out: LC50 SK-BR-3; for IC (TGI): total growth inhibition (cytostatic effect), read-out: TGI SK-BR-3
Procedure, shortened: as §1

[6] = tested on: LoVo; assay: SRB colorimetric cell growth inhibition assay, LoVo; assay type: cell-based; settings: Homo sapiens; for GI50: GI=growth inhibition, read-out: GI50 LOVO; for CC50: read-out: LC50 LOVO; for IC (TGI): read-out: TGI LOVO
Procedure, shortened: as §1

[7] = tested on: IGROV; assay: SRB colorimetric cell growth inhibition assay, IGROV; assay type: cell-based
Procedure, shortened: as §1

[8] = target: T1, human topoisomerase I (Homo sapiens, UniProt P11387); assay: Topoisomerase I DNA relaxation assay (supercoiled plasmid DNA); assay type: biochemical; settings: supercoiled plasmid DNA, each compound tested at 1 μM, agarose gel with ethidium bromide
T1 sequence (P11387 1-765): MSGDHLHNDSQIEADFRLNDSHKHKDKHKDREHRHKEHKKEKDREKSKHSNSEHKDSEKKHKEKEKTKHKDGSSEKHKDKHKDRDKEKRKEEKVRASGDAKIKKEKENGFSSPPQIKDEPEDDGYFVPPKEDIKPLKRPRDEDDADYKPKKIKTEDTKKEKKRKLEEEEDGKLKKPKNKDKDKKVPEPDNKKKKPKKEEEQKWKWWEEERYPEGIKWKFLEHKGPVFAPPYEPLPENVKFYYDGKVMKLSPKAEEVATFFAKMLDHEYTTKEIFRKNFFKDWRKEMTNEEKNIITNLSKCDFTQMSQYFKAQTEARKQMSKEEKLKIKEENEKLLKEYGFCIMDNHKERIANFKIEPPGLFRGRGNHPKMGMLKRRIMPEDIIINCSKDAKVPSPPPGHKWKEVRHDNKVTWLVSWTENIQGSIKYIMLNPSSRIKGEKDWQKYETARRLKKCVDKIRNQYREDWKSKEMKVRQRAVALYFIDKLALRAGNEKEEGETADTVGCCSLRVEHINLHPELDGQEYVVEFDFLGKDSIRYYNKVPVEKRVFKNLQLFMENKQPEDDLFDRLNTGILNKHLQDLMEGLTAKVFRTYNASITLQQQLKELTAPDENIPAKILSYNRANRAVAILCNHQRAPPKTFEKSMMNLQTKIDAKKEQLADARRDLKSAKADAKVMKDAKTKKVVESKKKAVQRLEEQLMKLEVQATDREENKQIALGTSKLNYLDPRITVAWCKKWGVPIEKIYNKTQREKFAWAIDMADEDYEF
Procedure, shortened: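 Test compounds (1 μM each) were present during topoisomerase I relaxation of supercoiled plasmid DNA. Relaxation was assessed on ethidium bromide-stained agarose gels.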

[9] = tested on: SK-MEL-28; assay: SRB colorimetric cell growth inhibition assay, SK-MEL-28; assay type: cell-based; settings: Homo sapiens, SK-MEL-28, MEL-28; for GI50: GI=growth inhibition, read-out: GI50 MEL-28; for CC50: cell killing (cytotoxic effect), read-out: LC50 MEL-28; for IC (TGI): total growth inhibition (cytostatic effect), read-out: TGI MEL-28
Procedure, shortened: as §1

[10] = tested on: HT-29; assay: SRB colorimetric cell growth inhibition assay, HT-29; assay type: cell-based; settings: Homo sapiens; for GI50: GI=growth inhibition, read-out: GI50 HT-29; for CC50: read-out: LC50 HT-29; for IC (TGI): read-out: TGI HT-29
Procedure, shortened: as §1

[11] = tested on: LNCaP; assay: SRB colorimetric cell growth inhibition assay, LNCaP; assay type: cell-based; settings: Homo sapiens, LNCaP, LN-caP; for GI50: GI=growth inhibition, read-out: GI50 LN-caP; for CC50: cell killing (cytotoxic effect), read-out: LC50 LN-caP; for IC (TGI): total growth inhibition (cytostatic effect), read-out: TGI LN-caP
Procedure, shortened: as §1

[12] = tested on: A-549; assay: SRB colorimetric cell growth inhibition assay, A-549; assay type: cell-based; settings: Homo sapiens, A549, A-549; for GI50: GI=growth inhibition, read-out: GI50 A-549; for CC50: read-out: LC50 A-549; for IC (TGI): read-out: TGI A-549
Procedure, shortened: as §1

[13] = tested on: LoVo-Dox; assay: SRB colorimetric cell growth inhibition assay, LoVo-Dox (MDR); assay type: cell-based; settings: Homo sapiens, LOVO-DOX; for GI50: GI=growth inhibition, read-out: GI50 LOVO-DOX; for CC50: read-out: LC50 LOVO-DOX; for IC (TGI): read-out: TGI LOVO-DOX
Procedure, shortened: as §1

[14] = LC=cell killing (cytotoxic effect)
[15] = TGI=total growth inhibition (cytostatic effect)
[16] = Homo sapiens, IGROV; GI=growth inhibition; read-out: GI50 IGROV
[17] = Homo sapiens, IGROV; cell killing (cytotoxic effect); read-out: LC50 IGROV
[18] = Homo sapiens, IGROV; total growth inhibition (cytostatic effect); read-out: TGI IGROV
[19] = cell killing (cytotoxic effect)
[20] = total growth inhibition (cytostatic effect)
[21] = PANC-1, PANC-1, cell killing (cytotoxic effect)
[22] = PANC-1, PANC-1, total growth inhibition (cytostatic effect)
[23] = LoVo, cell killing (cytotoxic effect)
[24] = HT-29, HT-29, cell killing (cytotoxic effect)

COc1cc(-c2c3c4cc(OC)c(OC(=O)[C@@H]5CCCN5)cc4oc(=O)c3n3ccc4cc(OC(=O)[C@@H]5CCCN5)c(OC)cc4c23)ccc1OC(=O)[C@@H]1CCCN1 [Compound 33]
GI50 [1]: 5.96 nM | CC50 [1, 14]: 4030 nM | IC (TGI) [1, 15]: 918 nM | GI50 [2]: 78.1 nM | CC50 [2]: 8830 nM | IC (TGI) [2]: 589 nM | GI50 ([3]; PANC-1, PANC-1): 89.2 nM | CC50 ([3]; PANC-1, PANC-1, LC=cell killing (cytotoxic effect)): 8440 nM | IC (TGI) ([3]; PANC-1, PANC-1, TGI=total growth inhibition (cytostatic effect)): 1060 nM | GI50 ([4]; DU-145, DU-145): 18.6 nM | CC50 ([4]; DU-145, DU-145): 367 nM | IC (TGI) ([4]; DU-145, DU-145): 46 nM | GI50 ([5]; SK-BR-3, SK-BR-3): 30.5 nM | CC50 ([5]; SK-BR-3, SK-BR-3): 1440 nM | IC (TGI) ([5]; SK-BR-3, SK-BR-3): 168 nM | GI50 ([6]; LoVo): 153 nM | CC50 ([6]; LoVo, LC=cell killing (cytotoxic effect)): 726 nM | IC (TGI) ([6]; LoVo, TGI=total growth inhibition (cytostatic effect)): 333 nM | GI50 [7, 16]: 49.6 nM | CC50 [7, 17]: 4760 nM | IC (TGI) [7, 18]: 500 nM | stimulation of DNA cleavage by topoisomerase I / inhibition of topoisomerase I (nicked DNA band) in DNA relaxation assay [8]: marked inhibition of topoisomerase I | GI50 [9]: 41.1 nM | CC50 [9]: 2480 nM | IC (TGI) [9]: 198 nM | GI50 ([10]; HT-29, HT-29): 1340 nM | CC50 ([10]; HT-29, HT-29, LC=cell killing (cytotoxic effect)): 8740 nM | IC (TGI) ([10]; HT-29, HT-29, TGI=total growth inhibition (cytostatic effect)): 3420 nM | GI50 [11]: 39.7 nM | CC50 [11]: 423 nM | IC (TGI) [11]: 155 nM | GI50 [12]: 37.9 nM | CC50 [12, 14]: 883 nM | IC (TGI) [12, 15]: 154 nM | GI50 [13]: 198 nM | CC50 [13, 14]: 4330 nM | IC (TGI) [13, 15]: 558 nM

COc1cc(-c2c3n(c4c(=O)oc5cc(OC(=O)[C@H](C)NC(=O)[C@H](C)NC(=O)OC(C)(C)C)c(OC)cc5c24)CCc2cc(OC(=O)[C@H](C)NC(=O)[C@H](C)NC(=O)OC(C)(C)C)c(OC)cc2-3)ccc1OC(=O)[C@H](C)NC(=O)[C@H](C)NC(=O)OC(C)(C)C [Compound 7]
GI50 [1]: 596 nM | CC50 [1, 19]: 8140 nM | IC (TGI) [1, 20]: 2680 nM | GI50 [2]: 1860 nM | CC50 [2]: 8140 nM | IC (TGI) [2]: 4580 nM | CC50 [3, 21]: 8040 nM | IC (TGI) [3, 22]: 3310 nM | GI50 ([3]; PANC-1): 1360 nM | CC50 ([4]; DU-145, DU-145): 5410 nM | GI50 ([4]; DU-145): 993 nM | IC (TGI) ([4]; DU-145): 2310 nM | CC50 ([5]; SK-BR-3, SK-BR-3): 5980 nM | GI50 ([5]; SK-BR-3): 1140 nM | IC (TGI) ([5]; SK-BR-3): 2610 nM | CC50 [6, 23]: 8140 nM | GI50 ([6]; LOVO): 2000 nM | IC (TGI) ([6]; LOVO, total growth inhibition (cytostatic effect)): 5050 nM | CC50 [7, 17]: 5790 nM | GI50 ([7]; Homo sapiens; IGROV; GI=growth inhibition; read-out: GI50 IGROV): 1230 nM | IC (TGI) ([7]; Homo sapiens; IGROV; total growth inhibition (cytostatic effect); read-out: TGI IGROV): 2670 nM | GI50 [9]: 652 nM | CC50 [9]: 3750 nM | IC (TGI) [9]: 1640 nM | CC50 [10, 24]: 8140 nM | GI50 ([10]; HT-29): 871 nM | IC (TGI) ([10]; HT-29, total growth inhibition (cytostatic effect)): 3310 nM | GI50 [11]: 425 nM | CC50 [11]: 3610 nM | IC (TGI) [11]: 1360 nM | GI50 [12]: 969 nM | CC50 [12, 19]: 8140 nM | IC (TGI) [12, 20]: 2960 nM | GI50 [13]: 3660 nM | CC50 [13, 19]: 8140 nM | IC (TGI) [13, 20]: 8140 nM

COc1cc(-c2c3n(c4c(=O)oc5cc(OC(=O)CCc6ccccc6)c(OC)cc5c24)CCc2cc(OC(=O)CCc4ccccc4)c(OC)cc2-3)ccc1OC(=O)CCc1ccccc1 [Compound 11]
GI50 [2]: 5530 nM | CC50 [2]: 11100 nM | IC (TGI) [2]: 11100 nM | GI50 ([3]; PANC-1, PANC-1): 214 nM | CC50 [3, 21]: 11100 nM | IC (TGI) [3, 22]: 1760 nM | GI50 ([4]; DU-145, DU-145): 35.3 nM | CC50 ([4]; DU-145, DU-145): 2780 nM | IC (TGI) ([4]; DU-145, DU-145): 151 nM | GI50 ([5]; SK-BR-3, SK-BR-3): 187 nM | CC50 ([5]; SK-BR-3, SK-BR-3): 6660 nM | IC (TGI) ([5]; SK-BR-3, SK-BR-3): 1200 nM | GI50 ([6]; LoVo): 42.4 nM | CC50 [6, 23]: 10400 nM | IC (TGI) ([6]; LoVo, total growth inhibition (cytostatic effect)): 1160 nM | GI50 [7, 16]: 267 nM | CC50 [7, 17]: 5880 nM | IC (TGI) [7, 18]: 1140 nM | stimulation of DNA cleavage by topoisomerase I / inhibition of topoisomerase I (nicked DNA band) in DNA relaxation assay [8]: inactive | GI50 [9]: 200 nM | CC50 [9]: 6180 nM | IC (TGI) [9]: 1180 nM | GI50 ([10]; HT-29, HT-29): 38.4 nM | CC50 [10, 24]: 8230 nM | IC (TGI) ([10]; HT-29, HT-29, total growth inhibition (cytostatic effect)): 175 nM | GI50 [12]: 128 nM | CC50 [12, 19]: 11100 nM | IC (TGI) [12, 20]: 1540 nM | GI50 [13]: 11100 nM | CC50 [13, 19]: 11100 nM | IC (TGI) [13, 20]: 11100 nM

— patent US7396837B2, “Antitumoral analogs of lamellarins” (Pharma Mar, S.A.U., priority 2002, dated 2008)
